Like-named read-outs stand apart in the source and are kept apart here.
How the values were obtained:
[1] = tested on: histone H3 hyperacetylation in HeLa cervical carcinoma cells; experiment: Cellular histone H3 hyperacetylation assay; type: cell-based; details: Homo sapiens, 24 h treatment
Procedure, shortened: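 HeLa cells treated with compound for 24 h, then fixed, permeabilized and immunostained for acetylated histone H3 (K1-20) with an Alexa Fluor 488 secondary. High-content imaging scored the percentage of cells with nuclear fluorescence; EC50 from concentration-effect curves by non-linear regression.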

[2] = tested on: A549 NSCLC cells; experiment: Cellular cytotoxicity assay (Alamar Blue), A549; type: cell-based; details: Homo sapiens, 72 h, upper end given as ≧100, read-out: IC50 (μM), cytotoxicity towards A549 NSCLC cells
Procedure, shortened: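 Resazurin-to-resorufin fluorescence (ex 544, em 590 nm, after 4 h) gave viability as % of untreated cells following 72 h compound exposure at 37 °C. Compounds were added in semi-logarithmic dilutions 24 h post-seeding, quadruplicate wells; IC50 fitted by non-linear regression of concentration-effect curves.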

[3] = read-out: EC50, induction of histone H3 hyperacetylation
[4] = read-out: −lg EC50, induction of histone H3 hyperacetylation

EC50 [1, 3] [nM]	EC50 [1, 4] [nM]	Structure (SMILES)	IC50 [2] [µM]
150 to 15000	251 to 15800	Nc1ccccc1NC(=O)c1nc2c(s1)CN(C(=O)Nc1ccc(-c3ccccc3)cc1)CC2 [Example 1, N^2-(2-aminophenyl)-N5-biphenyl-4-yl-6,7-dihydro[1,3]thiazolo[5,4-c]pyridine-2,5(4H)-dicarboxamide]	≥ 0.2
150 to 15000	251 to 15800	COc1ccc(NC(=O)N2CCc3nc(C(=O)Nc4ccccc4N)sc3C2)cc1 [Example 3, N^2-(2-aminophenyl)-N5-(4-methoxyphenyl)-6,7-dihydro[1,3]thiazolo[5,4-c]pyridine-2,5(4H)-dicarboxamide]	≥ 0.2
150 to 15000	251 to 15800	CN(C)c1ccc(NC(=O)N2CCc3nc(C(=O)Nc4ccccc4N)sc3C2)cc1 [Example 2, N^2-(2-aminophenyl)-N5-[4-(dimethylamino)phenyl]-6,7-dihydro[1,3]thiazolo[5,4-c]pyridine-2,5(4H)-dicarboxamide]	≥ 0.2
150 to 15000	251 to 15800	Nc1ccccc1NC(=O)c1nc2c(s1)CN(C(=O)Nc1cnc3ccccc3c1)CC2 [Example 12, N^2-(2-aminophenyl)-N5-quinolin-3-yl-6,7-dihydro[1,3]thiazolo[5,4-c]pyridine-2,5(4H)-dicarboxamide]	≥ 0.2

From patent US8440830B2, “Tetrahydro-fused pyridines as histone deacetylase inhibitors” (4SC AG, priority 2007, dated 2013)
